Laboratory results: ChEMBL document CHEMBL3108720, “Polygonumosides A-D, stilbene derivatives from processed roots of Polygonum multiflorum” (J Nat Prod, 2014)

tested on: Radical scavenging activity; assay: Antioxidant activity of the compound assessed as DPPH free radical scavenging activity after 30 mins; format: functional

OC[C@H]1O[C@@H](Oc2c(O)cc(O)cc2[C@H](O)[C@@H](c2ccc(O)cc2)c2c(O)cc(O)c(O[C@@H]3O[C@H](CO)[C@@H](O)[C@H](O)[C@H]3O)c2/C=C/c2ccc(O)cc2)[C@H](O)[C@@H](O)[C@@H]1O and OC[C@H]1O[C@@H](Oc2c(O)cc(O)cc2[C@@H](O)[C@H](c2ccc(O)cc2)c2c(O)cc(O)c(O[C@@H]3O[C@H](CO)[C@@H](O)[C@H](O)[C@H]3O)c2/C=C/c2ccc(O)cc2)[C@H](O)[C@@H](O)[C@@H]1O cannot be ordered by IC50: greater than 2000 µM for the first, greater than 2000 µM for the second.

First: O=c1oc2cc(O[C@@H]3O[C@H](CO)[C@@H](O)[C@H](O)[C@H]3O)c3c(c2c2c(O)c(O)c(O)cc12)O[C@@H](c1ccc(O)cc1)C3
Second: O=c1oc2cc(O[C@@H]3O[C@H](CO)[C@@H](O)[C@H](O)[C@H]3O)c3c(c2c2c(O)c(O)c(O)cc12)O[C@H](c1ccc(O)cc1)C3
The IC50 of the first is 1.9-fold higher: 569 µM for the first, 298 µM for the second.
